Reference: patent publication US20040038861A1, “Methods and compositions for normalizing lipid levels in mammalian tissues” (priority 2001, published 2004)
Where no end group is shown, it is not given here.

What was measured:
soleus muscle [1] = assay: cAMP content of isolated soleus muscle from normal fed rats; format: cell-based, rat; settings: for cAMP content in soleus muscles: 1 μM isoproterenol
Description: (§1) Soleus muscle preparation. All experiments were performed according to protocols approved by the Institutional Animal Ethics Committee. 5-6 week-old male Wistar rats (160 g) were kept on a 12:12-h light/dark cycle, and fed and watered ad libitum. Animals were anaesthetised with 50 mg/kg Nembutal (pentobarbitone sodium), then sacrificed by cervical dislocation. Soleus muscles were dissected under oxygenated KHB (118 mM NaCl, 4.75 mM KCl, 1.2 mM MgSO4, 24.8 mM NaHCO3, 1.2 mM KH2PO4, 2.54 mM CaCl2, 10 mM glucose, pH 7.4) and teased into halves, then incubated as described below.
(§2) For the measurement of cAMP in muscle, isolated soleus strips were incubated with stated concentrations of peptides, then lyophilized and deproteinized. Each strip was placed in 400 μl of 0.5 M HClO4 with 5 mM EDTA (phosphodiesterase inhibitor) and sonicated three times in 20 s bursts. Tubes were heated for 3-5 min in boiling water to coagulate protein, then centrifuged (12,000 g, 4° C., 2 min). Supernatant (300 μl) was taken and the pH adjusted to 7.0 with 75 μl of 2 M NH4OH. The samples were refrigerated (4° C., 2 h) to precipitate proteins, then centrifuged under the same conditions as above and 50 μl taken for cAMP measurement.

[2] = target: metabolic amylin receptor
soleus muscle [3] = assay: Lipid metabolites (free fatty acid, glycerol, triglyceride; enzymatic analysis) in isolated soleus muscle from normally fed rats; format: cell-based, rat; settings: 1 h; for free fatty acid content in conjunction with 100 nM CGRP: 10 μM antagonist or maximally stimulating insulin (23.7 nM) + 100 nM CGRP, CGRP alone 334±52; for free fatty acid content in conjunction with 100 nM amylin: 10 μM antagonist or maximally stimulating insulin (23.7 nM) + 100 nM amylin, amylin alone 216±26
soleus muscle [4] = assay: Glucose transport (2-deoxy-D-glucose uptake) in incubated soleus muscle strips; format: cell-based, rat
Description: as §1
Determination of rates of glucose transport in incubated soleus muscle strips. 4-5 muscle strips were added to each flask, which contained 10 ml DMEM. They were pre-incubated with hormones as indicated for 30 min at 30° C. in a shaking water bath, after which 5 μl of 2[^3H]DOG (0.5 μCi/ml) and 5 μl D[^14C(U)]sorbitol (0.05 μCi/ml) were added, then incubated for another 30 min; RIA grade BSA was added to 0.9% (w/v) to prevent non-specific binding of insulin to flasks. Following incubation, muscle strips were transferred to ice-cold KHB for 5-10 min to remove excess [^3H]DOG and [^14C]sorbitol. They were then blotted, frozen, tendons excised, then lyophilized for a further 48 h. Muscles were then weighed, transferred to scintillation vials and digested with 0.5 ml 1 M NaOH at 60° C. for 1 h. Scintillation fluid (4 ml) was added to each vial, and samples counted in a Beckman liquid scintillation spectrometer, preset to count ^14C and ^3H channels simultaneously. The amount of each isotope present in the samples was determined and used to calculate the extracellular space and the intracellular concentration of [^3H]DOG. The accumulation of intracellular [^3H]DOG, a measure of muscle glucose uptake, was calculated by subtracting the concentration of [^3H]DOG in the extracellular space from the corresponding total muscle [^3H]DOG]; extracellular [^3H]DOG was quantified by measuring the muscle concentration of [^14C]sorbitol.
Data analysis. One way ANOVA, Dunnett's Multiple Comparisons Test, and unpaired Student's t-tests were used to calculate the statistical significance of differences, as appropriate. Dose-response curves were fitted to a sigmoidal dose-response algorithm, as follows: Y=minimum+(maximum−minimum)/([…] log ^(EC50^−X), for 2-DOG-uptake; and by a four parameter logistic model, Y=minimum+(maximum−minimum)/(1+10 log ^(EC50^−X)Hill-Coefficient) for total glycogen and [^14C]glucose incorporation. Calculations were performed using Prism v2.0 (GraphPad Software, San Diego, Calif.) to derive values for half-maximal effective concentration (EC50). Displacement curves derived for competition of bound radioligand with cold ligand in transfected cells were calculated according to a one site competition fit using Prism v2.0.

[5] = target: T1, murine ramp 1/C1ins− receptor (Mus musculus, UniProt Q60755+Q9WTJ5); assay: Radioligand binding and displacement of [3H]amylin in L6 myoblasts co-transfected with murine ramp 1 and C1ins−; settings: displacement of [3H]amylin, FIG. 9A
T1 construct: expressed in transfected cells; host or cells: L6 myoblasts (ATCC), transient co-transfection of pcDNA3.1 plasmids
T1 sequence (Q60755 42-496 isoform Q60755-2 limits assumed): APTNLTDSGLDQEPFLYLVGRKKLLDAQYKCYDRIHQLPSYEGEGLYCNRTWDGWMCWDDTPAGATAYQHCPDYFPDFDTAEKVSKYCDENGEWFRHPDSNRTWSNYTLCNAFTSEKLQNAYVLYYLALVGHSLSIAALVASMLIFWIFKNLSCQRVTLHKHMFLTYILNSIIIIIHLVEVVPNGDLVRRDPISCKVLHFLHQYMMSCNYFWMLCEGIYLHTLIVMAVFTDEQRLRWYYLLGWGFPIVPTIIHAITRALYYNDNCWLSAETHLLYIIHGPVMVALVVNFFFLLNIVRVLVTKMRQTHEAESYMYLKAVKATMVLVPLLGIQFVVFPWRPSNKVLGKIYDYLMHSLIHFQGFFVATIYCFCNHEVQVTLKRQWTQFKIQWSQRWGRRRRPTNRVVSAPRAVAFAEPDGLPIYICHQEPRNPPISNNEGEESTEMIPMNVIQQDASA
T1 sequence (Q9WTJ5 27-148 partner): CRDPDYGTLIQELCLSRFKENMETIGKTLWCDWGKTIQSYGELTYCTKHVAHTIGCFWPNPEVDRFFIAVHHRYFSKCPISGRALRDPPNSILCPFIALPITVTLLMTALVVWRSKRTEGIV
Description: Transfection of L6 myoblasts and cos-7 cells, and analysis of radioligand binding. L6 myoblasts and cos-7 cells were obtained from ATCC. Both cell lines were cultered in Dulbecco's modified Eagle's medium (DMEM; Gibco/BRL, high glucose) supplemented with 10% fetal calf serum (Gibco/BRL, Gaithersburg, Md.), L-glutamine (2 mM), penicillin (100 U/ml; Sigma), streptomycin (100 mg/ml; Sigma), saline (0.85%), under 5% CO2/95% air at 37° C. The day before transfection, cells were trypsinised and seeded into six-well plates at a density of 2.9×10^5 cells/well in the same medium. For transfection, cells were incubated with a mixture comprising 1 μg each of Qiagen-purified (Qiagen, Valencia, Calif.) plasmids containing C1ins− with either ramp 1 or ramp 3, and Fugene reagent (6 μl; Boehringer Mannheim) in Opti-Mem I medium (Gibco/BRL). The complex was added with serum to cells, which were incubated for a further 48 h.
For binding experiments, radioligand (either alone or together with stated final concentrations of non-radiolabeled ligands) was dissolved in DMEM containing 0.1% BSA (binding buffer) for 1 h before binding experiments were performed. […] Cells were washed twice with this buffer, then incubated with 1 ml of the same plus radioligand for 4 h at room temperature (21° C.).

soleus muscle [6] = assay: cAMP content of isolated soleus muscle from high fat-fed rats; format: cell-based, rat
Description: as §1, §2

Wistar rats [7] = assay: Serum hormones and blood metabolites following acute CGRP infusion in anaesthetised normal-fed rats; format: in vivo, rat; settings: end vs commencement of infusion
Description: (§3) Surgery. Experiments were performed on male Wistar rats. Animals were randomly assigned to experimental groups as outlined below. Induction and maintenance of surgical anesthesia was by 3-5% halothane and 2L oxygen. An initial blood sample was taken from a tail artery for measurement of baseline levels of blood glucose and lactate, electrolyte, acid base and oxygen status and serum levels of free fatty acids, triglyceride and cholesterol. Immediately following this, the trachea was cannulated and the animal ventilated at 60-70 breaths.min-1 with air supplemented with O2. The respiratory rate and end-tidal pressure (10-15 cmH2O) were adjusted to maintain end-tidal CO2 at 35-40 mmHg. Body temperature was maintained at 37° C. throughout surgery and the experiment by a heating pad. The carotid artery and jugular vein were cannulated with a solid-state blood pressure transducer and a saline filled PE 50 catheter respectively. For the antagonist infusion studies, surgery was similar to above with the alteration being that both the carotid artery and jugular vein were cannulated with saline filled PE 50 catheters. Fluids (saline or hormone dissolved in saline) were delivered to the jugular vein with a Y-connector to join the two lines. The carotid artery line was connected to a blood pressure transducer. Blood samples were taken from this line at time zero (baseline reading), 30 minutes and every 20 minutes until the end of the experiment at 90 minutes.
Infusion. […] Blood glucose measurements were taken from tail capillaries at 5-minute intervals throughout the duration of the experiment. At the end of the infusion a terminal blood sample was taken by cardiac puncture and analysed as per the basal sample and also for various metabolites and hormones. Serum and plasma samples were stored at −80° C. until future analysis. Animals were killed by cervical dislocation and harvested tissues (brain, liver, kidney, soleus muscle, extensor digitorum longus muscle, left ventricle, retroperitoneal and epididymal fat pads) snap frozen in liquid N2 and stored at −80° C. until future analysis.

Wistar rats [8] = assay: Tissue free fatty acid and triglyceride content following infusion in normal-fed rats; format: in vivo, rat
Description: as §3
Infusion. […] Blood glucose measurements were taken from tail capillaries at 5-minute intervals throughout the duration of the experiment. At the end of the infusion a terminal blood sample was taken by cardiac puncture and analysed as per the basal sample and also for various metabolites and hormones. Serum and plasma samples were stored at −80° C. until future analysis. Animals were killed by cervical dislocation and harvested tissues (brain, liver, kidney, soleus muscle, extensor digitorum longus muscle, left ventricle, retroperitoneal and epididymal fat pads) snap frozen in liquid N2 and stored at −80° C. until future analysis. For the antagonist studies, the protocols was the same as above with the following changes: Infusion was a combination of antagonist, CGRP or saline.

soleus muscle [9] = assay: Masoprocol effect on CGRP1-evoked NEFA and triglyceride contents in soleus muscle from high fat-fed rats; format: cell-based, rat; settings: 50 μM masoprocol with 100 nM or 1 pM CGRP1
Text: Masoprocol, (nordihydroguaiaretic acid), is a lipoxygenase inhibitor, that has been identified as the active component of Creosote bush extracts. Oral administration of this compound lowers serum NEFA and triglyceride concentrations in rats with fructose-induced hypertriglyceridemia (Gowri et al. 2000, Am. J. Physiol. 279: E593-E600), and decrease blood glucose and triglyceride concentrations in a fat-fed/streptozotocin rat model (Reed et al. 1999, Diabetologia 42: 102-106).

CC(C)NCC(O)c1ccc(O)c(O)c1 (stereo not shown) [isoproterenol]
cAMP content in soleus muscles (soleus muscle [1]; experiment of FIG. 13A): 3.5 ± 0.2 pmol/mg
cAMP content in soleus muscles (soleus muscle [1]; experiment of FIG. 13B): 3.8 ± 0.2 pmol/mg

rat CGRP-1 (ligand; unit assumed)
EC50, total glycogen content, with insulin (23.7 nM) [2]: 4.3 nM

insulin: Soluble human insulin (Actrapid 100U, Novo Nordisk)
free fatty acid content in conjunction with 100 nM CGRP (soleus muscle [3]): 107 ± 17 nmol/g
free fatty acid content in conjunction with 100 nM amylin (soleus muscle [3]): 100 ± 11 nmol/g
intramuscular free fatty acid content (soleus muscle [3]; soleus, normally fed rats, 100 nM amylin or CGRP-1, 4.4 μM norepinephrine, 23.7 nM insulin, control 78±21): 67 ± 9 nmol/g
2-DOG-uptake (soleus muscle [4]; hormone alone (amylin 10 nM; insulin 23.7 nM), basal 8.8 ± 0.9): 28.4 ± 6.4 nmol/g dry-wt muscle/min
stimulation of glucose uptake (soleus muscle [4]; insulin 23.7 nM vs basal): 3.2 fold

salmon calcitonin (from UniProt P01263) (ligand; unit assumed)
EC50, total glycogen content, with insulin (23.7 nM) [2]: 0.6 nM

Human adrenomedullin
competition with amylin for binding to co-transfected cells [5]: competed only very weakly

rat amylin (from UniProt P12969) (ligand; unit assumed)
EC50, total glycogen content, with insulin (23.7 nM) [2]: 8.1 nM

human CGRP1-(8-37) [CGRP-(8-37)]
free fatty acid concentration in conjunction with 1 pM CGRP (soleus muscle [3]; 100 pM antagonist + 1 pM CGRP, CGRP alone 166±18): 68±8 nmol/g
free fatty acid content in conjunction with 100 nM CGRP (soleus muscle [3]): 90 ± 7 nmol/g
free fatty acid content in conjunction with 100 nM amylin (soleus muscle [3]): 65 ± 8 nmol/g
cAMP content with 100 nM CGRP plus antagonist (soleus muscle [1]; normal fed, 10-fold molar excess of antagonist, CGRP alone 6.9±0.8): 4.8 ± 0.2 pmol/mg
cAMP content with 100 nM CGRP1 plus antagonist (soleus muscle [6]; 10-fold molar excess of antagonist): 5.4 ± 0.4 pmol/mg
cAMP content with 1 pM CGRP plus antagonist (soleus muscle [6]; 10-molar excess of antagonist, CGRP alone 8.6±0.4): 4.7±0.5 pmol/mg
Change in [serum] Triglyceride (Wistar rats [7]; CGRP 60 min, CGRP-(8-37) 90 min, control 0.2): 0.9 mmol/L
Change in [serum] FFA (Wistar rats [7]; control −0.1): -0.3 mmol/L
Change in Lactate (Wistar rats [7]; heparinised whole blood, control 0.3): 0.02 mmol/L
FFA content, Heart (Wistar rats [8]; CGRP 100 pmol/kg/min 1 h, CGRP-(8-37) 10 nmol/kg/min 90 minutes, control 0.8 ± 0.2): 0.9 ± 0.2 µmol/g
FFA content, Liver (Wistar rats [8]; same infusions, control 0.1 ± 0.01): 0.06 ± 0.04 µmol/g
FFA content, Soleus Muscle (Wistar rats [8]; same infusions, control 0.2 ± 0.02): 0.1 ± 0.02 µmol/g
FFA content, Kidney (Wistar rats [8]; same infusions, control 0.8 ± 0.1): 0.8 ± 0.1 µmol/g
FFA content, Epi Adipose (Wistar rats [8]; same infusions, control 2.1 ± 0.5): 2.2 ± 0.6 µmol/g
triglyceride content, Kidney (Wistar rats [8]; same infusions, control 2.8 ± 0.5): 2.5 ± 0.4 µmol/g
triglyceride content, Heart (Wistar rats [8]; same infusions, control 2.9 ± 0.4): 3.1 ± 0.4 µmol/g
triglyceride content, Soleus Muscle (Wistar rats [8]; same infusions, control 3.7 ± 0.4): 4.3 ± 0.4 µmol/g
triglyceride content, Liver (Wistar rats [8]; same infusions, control 4.3 ± 0.3): 5.8 ± 0.4 µmol/g
triglyceride content, Epi Adipose (Wistar rats [8]; same infusions, control 5.1 ± 1.2): 4.9 ± 1 µmol/g

rat calcitonin (CGNLSTCMLGTYTQDLNKFHTFPQTSIGVGAP; ends and bridges not checked; cysteine pairing not given here) [calcitonin family peptide from Bachem]
competition with amylin for binding to co-transfected cells [5]: competed only very weakly

CC(Cc1ccc(O)c(O)c1)C(C)Cc1ccc(O)c(O)c1 (stereo not shown) [masoprocol, nordihydroguaiaretic acid]
effect on CGRP1-evoked NEFA elevation (soleus muscle [9]): completely reversed NEFA elevation
effect on CGRP1-evoked decrements in triglyceride content (soleus muscle [9]): completely reversed decrements in soleus triglyceride content

CNCC(O)c1ccc(O)c(O)c1 (stereo not shown) [adrenaline]
cAMP content, agonist alone (soleus muscle [1]; normal fed, 100 nM CGRP or adrenaline, control 3.9±0.2): 9.6 ± 0.7 pmol/mg

CSNLSTCVLGKLSQELHKLQTYPRTNTGSGTP (ligand, ends and bridges not checked; cysteine pairing not given here) [salmon calcitonin]
EC50, ^14C-glucose incorporation into glycogen, with insulin (23.7 nM) [2]: 0.9 nM
EC50, ^14C-glucose incorporation into glycogen, without insulin [2]: 0.1 nM
EC50, total glycogen content, without insulin [2]: 1.7 nM
